Active and inactive are the calls of the source. The rule behind the calls is not given here. Where a SMILES comes first, the peptide text is derived from it. The star is where a group is joined. Cam = NC(=O)C*
Legend:
[1] = tested on: Human immunodeficiency virus 1; assay: Antiviral activity against X4 tropic HIV1 NL4-3 in MT4 cells assessed as protection from virus-induced cytopathogenicity after 5 days by MTT assay; type: functional, organism-based; details: Human immunodeficiency virus 1, NL4-3, MT4, 120 h
[2] = tested on: Human immunodeficiency virus 1; assay: Antiviral activity against R5 tropic HIV1 NL(AD8) in PM1/CCR5 cells assessed as protection from virus-induced cytopathogenicity at 6.25 uM after 5 days by MTT assay; type: functional; details: Human immunodeficiency virus 1, NL(AD8), PM1/CCR5, 120 h
[3] = tested on: Human immunodeficiency virus 1; assay: Antiviral activity against R5 tropic HIV1 JR-CSF in PM1/CCR5 cells assessed as protection from virus-induced cytopathogenicity measuring capsid p24 level at 50 uM after 5 days by ELISA; type: functional; details: Human immunodeficiency virus 1, JRCSF ISOLATE, PM1/CCR5, 120 h
[4] = Cytotoxicity against human MT4 cells after 5 days by MTT assay; type: cell-based
[5] = tested on: Human immunodeficiency virus 1; assay: Antiviral activity against X4 tropic HIV1 NL4-3 in MT4 cells assessed as protection from virus-induced cytopathogenicity at 3.13 uM after 5 days by MTT assay; type: functional, organism-based
[6] = Aqueous solubility of the compound; type: physicochemical; details: buffer
[7] = tested on: Human immunodeficiency virus 1; assay: Antiviral activity against R5 tropic HIV1 NL(AD8) in PM1/CCR5 cells assessed as protection from virus-induced cytopathogenicity at 25 uM after 5 days by MTT assay; type: functional; details: Human immunodeficiency virus 1, NL(AD8), PM1/CCR5, 120 h
[8] = tested on: Human immunodeficiency virus 1; assay: Antiviral activity against R5 tropic HIV1 JR-CSF in PM1/CCR5 cells assessed as protection from virus-induced cytopathogenicity measuring capsid p24 level after 5 days by ELISA; type: functional, cell-based; details: Human immunodeficiency virus 1, JRCSF ISOLATE, PM1/CCR5, 120 h
[9] = tested on: Human immunodeficiency virus 1; assay: Antiviral activity against R5 tropic HIV1 NL(AD8) in PM1/CCR5 cells assessed as protection from virus-induced cytopathogenicity after 5 days by MTT assay; type: functional, organism-based; details: Human immunodeficiency virus 1, NL(AD8), PM1/CCR5, 120 h
[10] = tested on: Human immunodeficiency virus 1; assay: Antiviral activity against R5 tropic HIV1 NL(AD8) in PM1/CCR5 cells assessed as protection from virus-induced cytopathogenicity at 50 uM after 5 days by MTT assay; type: functional; details: Human immunodeficiency virus 1, NL(AD8), PM1/CCR5, 120 h

SMILES | EC50 [1] [µM] | inhibition at 6.25 µM [2] [%] | inhibition at 50 µM [3] [%] | CC50 at 120 h [4] [µM] | inhibition [5] | solubility [6] | inhibition at 25 µM [7] [%] | EC50 [8] [µM] | EC50 [9] [µM] | inhibition at 50 µM [10] [%]
CC[C@H](C)[C@H](NC(=O)[C@H](CCC(N)=O)NC(=O)[C@H](CCCNC(=N)N)NC(=O)[C@H](CO)NC(=O)CNC(=O)[C@H](CCC(=O)O)NC(=O)[C@H](CO)NC(=O)[C@@H](NC(=O)[C@H](CCC(=O)O)NC(=O)[C@H](CC(C)C)NC(C)=O)[C@@H](C)O)C(=O)N[C@@H](CC(C)C)C(=O)NCC(=O)N[C@@H](CCC(N)=O)C(=O)N[C@@H](CC(C)C)C(=O)N[C@@H](CCC(N)=O)C(=O)NCC(=O)N[C@@H](CSCC(N)=O)C(N)=O (Ac-LETSEGSRQILGQLQGC(Cam)-NH2) | 37 | 24 | 25 | > 50 |  |  |  |  |  | 
CC[C@H](C)[C@H](NC(=O)[C@H](Cc1cnc[nH]1)NC(=O)[C@H](CCCCN)NC(=O)[C@H](CC(C)C)NC(C)=O)C(=O)N[C@H](C(=O)N[C@@H](Cc1c[nH]c2ccccc12)C(=O)N[C@@H](C)C(=O)N[C@@H](CO)C(=O)N[C@@H](CCCNC(=N)N)C(=O)N[C@@H](CCC(=O)O)C(=O)N[C@@H](CC(C)C)C(=O)N[C@@H](CCC(=O)O)C(=O)N[C@@H](CCCNC(=N)N)C(=O)N[C@@H](Cc1ccccc1)C(=O)N[C@@H](C)C(=O)NCC(=O)N[C@@H](CSCC(=O)N[C@@H](CCCNC(=N)N)C(=O)N[C@@H](CCCNC(=N)N)C(=O)N[C@@H](CCCNC(=N)N)C(=O)N[C@@H](CCCNC(=N)N)C(=O)N[C@@H](CCCNC(=N)N)C(=O)N[C@@H](CCCNC(=N)N)C(=O)N[C@@H](CCCNC(=N)N)C(=O)N[C@@H](CCCNC(=N)N)C(N)=O)C(N)=O)C(C)C |  |  |  | 3.7 | inactive |  |  |  |  | 
CC[C@H](C)[C@H](NC(=O)[C@@H](NC(=O)[C@H](CC(N)=O)NC(=O)[C@H](Cc1ccc(O)cc1)NC(=O)[C@H](CC(C)C)NC(=O)[C@H](CO)NC(=O)[C@H](CCCNC(=N)N)NC(=O)[C@H](CC(C)C)NC(=O)[C@H](CCC(=O)O)NC(=O)[C@H](CCC(=O)O)NC(=O)[C@H](CO)NC(=O)CNC(C)=O)[C@@H](C)O)C(=O)N[C@@H](C)C(=O)N[C@H](C(=O)N[C@@H](CC(C)C)C(=O)NCC(=O)N[C@@H](CSCC(N)=O)C(N)=O)C(C)C | > 50 |  |  | > 50 |  | Insoluble |  |  |  | 
CC[C@H](C)[C@H](NC(=O)[C@H](CCCCN)NC(=O)[C@H](CC(=O)O)NC(=O)[C@H](CC(C)C)NC(C)=O)C(=O)N[C@@H](CCC(=O)O)C(=O)N[C@@H](CCC(=O)O)C(=O)N[C@@H](CCC(=O)O)C(=O)N[C@@H](CCC(N)=O)C(=O)N[C@@H](CC(N)=O)C(=O)N[C@@H](CCCCN)C(=O)N[C@@H](CO)C(=O)N[C@@H](CCCCN)C(=O)N[C@@H](CCCCN)C(=O)N[C@@H](CCCCN)C(=O)N[C@@H](C)C(=O)NCC(=O)N[C@@H](CSCC(=O)N[C@@H](CCCNC(=N)N)C(=O)N[C@@H](CCCNC(=N)N)C(=O)N[C@@H](CCCNC(=N)N)C(=O)N[C@@H](CCCNC(=N)N)C(=O)N[C@@H](CCCNC(=N)N)C(=O)N[C@@H](CCCNC(=N)N)C(=O)N[C@@H](CCCNC(=N)N)C(=O)N[C@@H](CCCNC(=N)N)C(N)=O)C(N)=O | 18 |  |  | > 50 |  |  | 17 | 23 |  | 
CC[C@H](C)[C@H](NC(=O)[C@H](CCCNC(=N)N)NC(=O)[C@H](CCC(N)=O)NC(=O)[C@H](Cc1cnc[nH]1)NC(=O)[C@@H](NC(=O)[C@H](CO)NC(=O)[C@H](Cc1ccc(O)cc1)NC(=O)[C@H](CC(C)C)NC(=O)[C@@H](NC(=O)[C@H](C)NC(=O)[C@@H](NC(=O)[C@@H](NC(C)=O)[C@@H](C)O)[C@@H](C)CC)C(C)C)C(C)C)C(=O)N[C@@H](CC(=O)O)C(=O)N[C@H](C(=O)N[C@@H](CCCCN)C(=O)NCC(=O)N[C@@H](CSCC(N)=O)C(N)=O)C(C)C (Ac-TIAVLYSVHQRIDVKGC(Cam)-NH2) | 29 |  |  | > 50 |  | Insoluble |  | 8.1 | 13 | 
CC(=O)N[C@@H](CC(C)C)C(=O)NCC(=O)N[C@@H](CCC(N)=O)C(=O)N[C@@H](CC(C)C)C(=O)N[C@@H](CCC(N)=O)C(=O)N1CCC[C@H]1C(=O)N[C@@H](CO)C(=O)N[C@@H](CC(C)C)C(=O)N[C@@H](CCC(N)=O)C(=O)N[C@H](C(=O)NCC(=O)N[C@@H](CO)C(=O)N[C@@H](CCC(=O)O)C(=O)N[C@@H](CCC(=O)O)C(=O)N[C@@H](CC(C)C)C(=O)NCC(=O)N[C@@H](CSCC(=O)N[C@@H](CCCNC(=N)N)C(=O)N[C@@H](CCCNC(=N)N)C(=O)N[C@@H](CCCNC(=N)N)C(=O)N[C@@H](CCCNC(=N)N)C(=O)N[C@@H](CCCNC(=N)N)C(=O)N[C@@H](CCCNC(=N)N)C(=O)N[C@@H](CCCNC(=N)N)C(=O)N[C@@H](CCCNC(=N)N)C(N)=O)C(N)=O)[C@@H](C)O | 35 |  | 35 | > 50 |  |  |  |  |  | 37

From ChEMBL document CHEMBL1944566, “Conjugation of cell-penetrating peptides leads to identification of anti-HIV peptides from matrix proteins” (Bioorg Med Chem, 2012)
